Source: PMC10529594, “Strasseriolides display in vitro and in vivo activity against trypanosomal parasites and cause morphological and size defects in Trypanosoma cruzi” (PLOS Neglected Tropical Diseases, 2023)
“And” between values parts separate entries of the source, which are not always exact repeats. Equal entries are not always repeated.

Columns and labels:
[1] = tested on: L. donovani MHOM/ET/67/HU3 transgenic intracellular amastigotes; assay: L. donovani intracellular amastigote assay (luciferase, THP-1 macrophages); assay type: cell-based; conditions: Leishmania donovani, THP-1, 72 h, read-out: EC50 L. donovani
[2] = tested on: T. cruzi Tulahuen C4 epimastigotes; assay: T. cruzi epimastigotes growth inhibition assay (resazurin); assay type: cell-based, Trypanosoma cruzi; conditions: 72 h
Procedure: (§1) The Trypanosoma cruzi Tulahuen strain used is a genetically modified strain that expresses the Escherichia coli β-galactosidase gene, lacZ [31]. It was kindly supplied by Marcel Kaiser (Swiss Tropical and Public Health Institute). The T. cruzi Tulahuen C4 strain was cultured in RPMI-1640 supplemented with 10% inactivated FBS (iFBS), 1.7 mM L-glutamine, 100 U/mL penicillin, and […] at 37°C and 5% CO2. L6 rat skeletal muscle cells were purchased from ATCC (reference CRL-1458) and used as host cells for infection with transgenic T. cruzi trypomastigotes. Epimastigotes were obtained by differentiation in LIT medium with 10% iFBS at 28°C from trypomastigote forms.
A resazurin-based assay was set up in 96-well microplates containing 10 μL of test compound at concentrations ranging from 0.39 to 200 μM and log phase parasites seeded at 2 × 10^5 cells per well in a final volume of 100 μL. Maximum DMSO percentage in the well was 0.2%. Positive and negative growth controls were included. Following 72 hour incubation at 28°C with orbital shaking, 10 μL of resazurin solution were added to each well and the plates were returned to the incubator for 4 hours. Resazurin reduction was correlated to cell viability by fluorescence measurement with excitation and emission wavelength bands centered at 550 and 590 nm, respectively, in a Tecan Infinite 200 microplate reader.

[3] = tested on: T. cruzi Tulahuen C4 trypomastigotes; assay: T. cruzi trypomastigote viability assay (resazurin fluorescence); assay type: cell-based, Trypanosoma cruzi; conditions: Tulahuen C4, 72 hours at 37°C
Procedure: Tulahuen T. cruzi trypomastigotes were recovered 6 days post infection from the supernatant of harvested infected L6 cells cultures after 3 hours at 37°C. 90 μL of parasite culture at a density of 5 × 10^6 cells in RPMI 1640 media were dispensed into 96 Nunc flat bottom assay plates containing 10 μL of each compound.
In the fluorescence assay, plates were incubated for 24 and 48 hours after which 10 μL of the resazurin solution were added to each well. Plates were further incubated for 24 hours and fluorescence was measured at 550/590 nm using a Tecan Infinite 200 microplate reader. […] Final maximal DMSO percentage in the well was 0.1% and compound concentrations ranged from 0.2 to 100 μM.

[4] = tested on: T. cruzi Tulahuen C4 intracellular amastigotes; assay: β-D-galactosidase transgenic T. cruzi assay (intracellular amastigotes in L6 cells, CPRG); assay type: cell-based; conditions: Trypanosoma cruzi
Procedure: as §1
A Thermo Scientific Multidrop Combi dispenser was used to dispense 55 μL of T. cruzi infected L6 cells (2 ×10^3 cells per well) into 384-well Corning assay plates already containing 5 μL of each compound at concentrations ranging from 0.0015 to 50 μM and controls. The plates were incubated at 37°C for 96 hours upon which 15 μL of lysis buffer (0.5 mM CPRG, 0.5% NP40) were added to each well and further incubated for 4 hours in the dark. Absorbance at 585 nm was measured in a Perkin Elmer Envision plate reader.

L6 rat myoblast cells = assay: Cytotoxicity evaluation in L6 cells (resazurin); assay type: cell-based; conditions: Rattus norvegicus, Myoblast; 72 h, resazurin; read-out: EC50 L6
Procedure: One hundred microliters of supplemented RPMI 1640 medium containing the compounds and controls were added to L6 rat myoblast cells previously seeded (4,000 cells per well) in a 96-well microplate. After 72 hours at 37°C the viable cell number was determined by resazurin reduction. 20 μL of resazurin at 0.11 mg/mL in PBS 1X were added to each well and incubated in the dark for 2 hours at 37°C. Cell viability was estimated by measuring the final fluorescence at 570–590 nm in a Tecan Infinite F200 plate reader.

T. cruzi epimastigotes = assay: FACS analysis of T. cruzi epimastigotes (cell cycle, size and complexity); assay type: cell-based, Trypanosoma cruzi; conditions: for % Cells G1, Average / % Cells G2/M, Average / % Cells S, Average / % Cells sub-G1, Average / % Cells G1, individual replicates / % Cells G2/M, individual replicates / % Cells S, individual replicates / % Cells post G2/M, individual replicates / % Cells sub-G1, individual replicates: 72-hour drug exposure, FACS with PI staining; for Foward Scatter (FSC) - Geometric Mean, single experiment / Foward Scatter (FSC) - Geometric Mean, Average / size reduction with respect to untreated parasites: 72 h
Procedure: FACS analysis was used to study cell cycle progression and cellular parameters such as size and complexity. 5 × 10^6 T. cruzi epimastigotes were harvested by centrifugation at 1,000×g and 4°C after 72 hours of incubation in a 6-well plate in the presence and in absence of test compounds. Pellets of cells were washed with 5 mL of PBS and fixed in a solution of 70% ice-cold ethanol/PBS at -20°C overnight. Cells were then collected by centrifugation, washed with PBS and stained with 40 μg/mL of propidium iodide in PBS containing 10 μg/mL of RNase A at 37°C for 30 minutes. Fluorescence was monitored with a Becton Dickinson FACSCalibur using BD CellQuest Pro version 4.0.2 software with a total of 10,000 events acquired for each sample. The different cell populations as well as mean cellular parameters were determined by FlowJo software.

Q: Which EC50 [1] does the source give for `C/C1=C\[C@H](C)C(=O)C[C@@H](O)/C(C)=C/[C@H](C)C[C@@H](C)CC[C@@H]([C@@H](C)C(=O)O)OC(=O)[C@@H](C)C1` [Strasseriolide C, strasseriolide C] here?
A: 6.63 µM

Q: What about the “EC30, epimastigotes” value ([2]; from dose-response curve) of the same compound?
A: 28 µM

Q: And the “EC70, epimastigotes” value ([2]; from dose-response curve)?
A: 47 µM

Q: What about the EC50 ([2]; Trypanosoma cruzi, TULAHUEN, Tulahuen C4, 72 h, resazurin) of the same compound?
A: 32.4 µM

Q: What about the EC50 ([3]; Trypanosoma cruzi, TULAHUEN, 72 h) of the same compound?
A: 3.8 µM

Q: And the EC50 [3]?
A: 3.84 µM

Q: What about the inhibition at 0.00152588 µM ([4]; TULAHUEN, L6, T. cruzi amastigotes, 96-hour treatment, 0.00152588 µM, read-out: Growth inhibition (%) Average) of the same compound?
A: 3.17%

Q: And the inhibition at 0.00305176 µM ([4]; TULAHUEN, L6, T. cruzi amastigotes, 96-hour treatment, 0.00305176 µM, read-out: Growth inhibition (%) Average)?
A: 3.11%

Q: What about the inhibition at 0.00610352 µM ([4]; TULAHUEN, L6, T. cruzi amastigotes, 96-hour treatment, 0.00610352 µM, read-out: Growth inhibition (%) Average) of the same compound?
A: 4.62%

Q: And the inhibition at 0.012207 µM ([4]; TULAHUEN, L6, T. cruzi amastigotes, 96-hour treatment, 0.012207 µM, read-out: Growth inhibition (%) Average)?
A: 9.25%

Q: And the inhibition at 0.0244141 µM ([4]; TULAHUEN, L6, T. cruzi amastigotes, 96-hour treatment, 0.0244141 µM, read-out: Growth inhibition (%) Average)?
A: 4.92%

Q: What about the inhibition at 0.0488281 µM ([4]; TULAHUEN, L6, T. cruzi amastigotes, 96-hour treatment, 0.0488281 µM, read-out: Growth inhibition (%) Average) of the same compound?
A: 5.95%

Q: And the inhibition at 0.0976562 µM ([4]; TULAHUEN, L6, T. cruzi amastigotes, 96-hour treatment, 0.0976562 µM, read-out: Growth inhibition (%) Average)?
A: 2.24%

Q: And the inhibition at 0.195312 µM ([4]; TULAHUEN, L6, T. cruzi amastigotes, 96-hour treatment, 0.195312 µM, read-out: Growth inhibition (%) Average)?
A: 5.83%

Q: And the inhibition at 0.390625 µM ([4]; TULAHUEN, L6, T. cruzi amastigotes, 96-hour treatment, 0.390625 µM, read-out: Growth inhibition (%) Average)?
A: 4.94%

Q: What about the inhibition at 0.78125 µM ([4]; TULAHUEN, L6, T. cruzi amastigotes, 96-hour treatment, 0.78125 µM, read-out: Growth inhibition (%) Average) of the same compound?
A: 4.24%

Q: What about the inhibition at 1.5625 µM ([4]; TULAHUEN, L6, T. cruzi amastigotes, 96-hour treatment, 1.5625 µM, read-out: Growth inhibition (%) Average) of the same compound?
A: 15.3%

Q: And the inhibition at 3.125 µM ([4]; TULAHUEN, L6, T. cruzi amastigotes, 96-hour treatment, 3.125 µM, read-out: Growth inhibition (%) Average)?
A: 61.8%

Q: What about the inhibition at 6.25 µM ([4]; TULAHUEN, L6, T. cruzi amastigotes, 96-hour treatment, 6.25 µM, read-out: Growth inhibition (%) Average) of the same compound?
A: 96%

Q: What about the inhibition at 12.5 µM ([4]; TULAHUEN, L6, T. cruzi amastigotes, 96-hour treatment, 12.5 µM, read-out: Growth inhibition (%) Average) of the same compound?
A: 110%

Q: What about the inhibition at 25 µM ([4]; TULAHUEN, L6, T. cruzi amastigotes, 96-hour treatment, 25 µM, read-out: Growth inhibition (%) Average) of the same compound?
A: 112%

Q: What about the inhibition at 50 µM ([4]; TULAHUEN, L6, T. cruzi amastigotes, 96-hour treatment, 50 µM, read-out: Growth inhibition (%) Average) of the same compound?
A: 115%

Q: And the EC50 ([4]; Tulahuen C4 in L6 cells, 96 h, CPRG)?
A: 3.08 µM

Q: What about the EC50 (L6 rat myoblast cells) of the same compound?
A: > 50 µM

Q: And the “% Cells G1, Average” value (T. cruzi epimastigotes; EC30, average)?
A: 50.2633%

Q: And the “% Cells G2/M, Average” value (T. cruzi epimastigotes; EC30, average)?
A: 31.3463%

Q: And the “% Cells S, Average” value (T. cruzi epimastigotes; EC30, average)?
A: 16.5971%

Q: And the “% Cells sub-G1, Average” value (T. cruzi epimastigotes; EC30, average)?
A: 3.151%

Q: What about the “% Cells G1, individual replicates” value (T. cruzi epimastigotes; EC30, single replicates) of the same compound?
A: 52.1473% and 48.3792%

Q: What about the “% Cells G2/M, individual replicates” value (T. cruzi epimastigotes; EC30, single replicates) of the same compound?
A: 31.009% and 31.6835%

Q: What about the “% Cells S, individual replicates” value (T. cruzi epimastigotes; EC30, single replicates) of the same compound?
A: 14.5117% and 18.6825%

Q: What about the “% Cells post G2/M, individual replicates” value (T. cruzi epimastigotes; EC30, single replicates) of the same compound?
A: -0.5484% and -2.167%

Q: And the “% Cells sub-G1, individual replicates” value (T. cruzi epimastigotes; EC30, single replicates)?
A: 2.8804% and 3.422%

Q: What about the “% Cells G1, Average” value (T. cruzi epimastigotes; EC70, average) of the same compound?
A: 52.4319%

Q: What about the “% Cells G2/M, Average” value (T. cruzi epimastigotes; EC70, average) of the same compound?
A: 31.1794%

Q: What about the “% Cells S, Average” value (T. cruzi epimastigotes; EC70, average) of the same compound?
A: 14.7538%

Q: What about the “% Cells sub-G1, Average” value (T. cruzi epimastigotes; EC70, average) of the same compound?
A: 3.07%

Q: And the “% Cells G1, individual replicates” value (T. cruzi epimastigotes; EC70, single replicates)?
A: 54.5779% and 50.2858%

Q: And the “% Cells G2/M, individual replicates” value (T. cruzi epimastigotes; EC70, single replicates)?
A: 30.5655% and 31.7933%

Q: And the “% Cells S, individual replicates” value (T. cruzi epimastigotes; EC70, single replicates)?
A: 10.63% and 18.8776%

Q: What about the “% Cells post G2/M, individual replicates” value (T. cruzi epimastigotes; EC70, single replicates) of the same compound?
A: -0.9732% and -1.896%

Q: And the “% Cells sub-G1, individual replicates” value (T. cruzi epimastigotes; EC70, single replicates)?
A: 5.2% and 0.9392%

Q: And the “Foward Scatter (FSC) - Geometric Mean, single experiment” value (T. cruzi epimastigotes; EC30)?
A: 81.2 and 80.4

Q: And the “Foward Scatter (FSC) - Geometric Mean, Average” value (T. cruzi epimastigotes; EC30, control 96.65)?
A: 80.8

Q: And the “Foward Scatter (FSC) - Geometric Mean, single experiment” value (T. cruzi epimastigotes; EC70)?
A: 72.5 and 74.3

Q: And the “Foward Scatter (FSC) - Geometric Mean, Average” value (T. cruzi epimastigotes; EC70, control 96.65)?
A: 73.4

Q: And the “size reduction with respect to untreated parasites” value (T. cruzi epimastigotes; at EC30)?
A: 16%

Q: What about the “size reduction with respect to untreated parasites” value (T. cruzi epimastigotes; at EC70) of the same compound?
A: 22%
